# Source: publication PMC6145916, “Interaction of mitochondrial fission factor with dynamin related protein 1 governs physiological mitochondrial function in vivo” (Scientific Reports, 2018)
# Where no end group is shown, it is not given here.
# Tests used:
# Wild-type MEF cells = settings: 4 µM P259, 15 minutes, mito-dendra2 photoconversion; 9 movies over two independent experiments
# MFF knockout MEFs = test: Mitochondrial membrane potential (TMRM), MFF knockout MEFs; type: cell-based, mouse; settings: 20 µM P259 overnight, vs no peptide; 3 independent experiments, three technical replicates; ns p = 0.93
# Experimental: (§1) Data are of 3 independent experiments with the whiskers calculated by the Turkey method. e. […]
# (§2) determined by an unpaired, two -tailed t test). g. […]
# control (no peptide treatment). Data are mean ± s.e. from 3 independent experiments. […]
# and without phenol red. […] After incubation
# HEPES, and without phenol red. […]
# epifluorescence microscope with a 10X objective (Keyence). The Cy5 filter (Keyence) was used to autofocus on the mitochondria plane. […]
# Mitochondrial membrane potential determination
# After treatment, cells were washed with
# Cells were incubated in a 37
# °C incubator for 30 minutes. […]
# [1] = test system: Huntington's disease patient-derived fibroblasts; test: Mitochondrial ROS (MitoSox) in HD patient-derived fibroblasts; type: cell-based, human; settings: indicated peptide concentration daily for three days, normalized to healthy fibroblast control; 3 independent experiments
# Experimental: (DNM1L) and MFF genes. a.
# DNM1L and MFF throughout evolution. NCBI PSI -BLAST was performed for the human […]
# corresponding to the human gene. c.
# DNM1L and 7/7 isoforms of MFF. d. […]
# affect mitochondrial fusion measured by photoconvertible den dra2 protein. Mito -dendra2 […]
# The initial image following […]
# species production (MitoSox). d.
# as §1
# production in an Mff -dependent manner. Mitochondrial reactive oxygen species production […]
# treatment in each cell line. […]
# as §2
# control (no peptide treatment). Data are mean ± s.e. from 3 independent experiments.
# Human neuroblastoma SH-SY5Y cells purchased from ATCC were cultured in a 50/50 mixture of […]
# using SH-SY5Y cells were carried out in the same growth medium with the exception of using […]
# Wild-type and MFF knockout mouse embryonic fibroblast (MEF) cells were generously provided by Professor David Chan. […]
# an NCBI protein blast of the P259 sequence ([…]) was performed across the human genome database and the top 75 gene query hits were recorded.7 The orthologs of each available gene were obtained from the Ensembl database.8 Of the resulting 75 human gene hits, 37 had […]
# calculated as the average MitoSox signal per cell. […]
substance,measurement,setting,value
YGRKKRRQRRRGSGIIQLPEIVVV-NH2 (C-terminus assumed) [P259],rate of mitochondrial fusion,Wild-type MEF cells,did not increase the rate of mitochondrial fusion
same,"effect on mitochondrial membrane potential, Mff knockout MEFs",MFF knockout MEFs,insensitive
same,mitochondrial ROS,[1],further increased mitochondrial ROS
